These results are taken from patent US9290691B2, “Organic el material-containing solution, method for forming organic el thin film, organic el device comprising organic el thin film, and method for manufacturing organic el display panel” (IDEMITSU KOSAN CO., LTD., priority 2007, dated 2016).

This series can be described thus: Solvent solubility of naphthacene host compound. Type of series: physicochemical. The settings on record: aromatic substituent bonded to naphthacene skeleton in para position; solvent not stated. From the text: For instance, when an aromatic group as a substituent is bonded to a naphthacene skeleton in para position, the solubility is lowered.

Structures are written as SMILES.

As for `c1ccc(-c2ccc(-c3c4ccccc4c(-c4ccc(-c5ccccc5)cc4-c4ccccc4)c4cc5ccccc5cc34)c(-c3ccccc3)c2)cc1`, the solubility was at most 0.1 mass %.
